# Experimental data taken from patent publication US9521847B2, “Synergistic weed control from applications of pyridine carboxylic acid herbicides and synthetic auxin herbicides and/or auxin transport inhibitors” (Dow AgroSciences LLC, priority 2014, dated 2016).
# How the values were obtained:
# winter wheat (TRZAW) = details: winter wheat (Triticum aestivum), in vivo
# [1] = system: lady's thumb (POLPE, Polygonum persicaria); test: Small plot field trial (Canada), % visual injury; assay type: in vivo; details: 560 g ae/ha alone, 14-16 DAA
# Method: (§1) Trials were established as randomized complete blocks with 3-4 replicates. Individual plots were 2-3 meters (m) wide and 8-10 m long. Applications were made with backpack or tractor-mounted sprayers delivering a spray volume output of 100 liters per hectare (L/ha) using pressurized carbon dioxide (CO2) as a propellant. Compound 7 was combined with 2,4 D EHE (660 g ae/L EC formulation) and applied to spring wheat (TRZAS), and the phytotoxicity of the herbicidal compositions was measured. In addition, the efficacy of the herbicidal composition on Canadian thistle ([…], Cirsium arvense), […] scoparia), mallow ([…] pusilla), wild buckwheat (POLCO, Polygonum convolvulus), and lady's thumb (POLPE, Polygonum persicaria) was evaluated.
# [2] = system: MALPU = Malva pusilla (mallow); test: Small plot field trial (Canada), % visual injury; assay type: in vivo; details: 560 g ae/ha alone, 26-33 DAA
# Method: as §1
# [3] = system: wild buckwheat (POLCO, Polygonum convolvulus); test: Small plot field trial (Canada), % visual injury; assay type: in vivo; details: 560 g ae/ha alone, 15 DAA
# Method: as §1
# [4] = system: kochia (KCHSC, Kochia scoparia); test: Small plot field trial (Canada), % visual injury; assay type: in vivo; details: 560 g ae/ha alone, 46-64 DAA
# Method: as §1
# [5] = system: CIRAR = Cirsium arvense (Canadian thistle); test: Small plot field trial (Canada), % visual injury; assay type: in vivo; details: 560 g ae/ha alone, 46-64 DAA
# Method: as §1
# [6] = system: blackgrass (Alopecurus myosuroides, ALOMY); test: Greenhouse postemergence trial, % visual injury; assay type: in vivo; details: 140 g ae/ha
# spring wheat (TRZAS) = test: Small plot field trial (Canada), crop phytotoxicity (% visual injury); assay type: in vivo, Triticum aestivum; details: 560 g ae/ha alone
# Excerpt: Small plot field trials were established in Canada to evaluate efficacy and crop safety of Compound 7 with 2,4-D EHE. Trials were established as randomized complete blocks with 3-4 replicates. Individual plots were 2-3 meters (m) wide and 8-10 m long. Applications were made with backpack or tractor-mounted sprayers delivering a spray volume output of 100 liters per hectare (L/ha) using pressurized carbon dioxide (CO2) as a propellant. Compound 7 was combined with 2,4 D EHE (660 g ae/L EC formulation) and applied to spring wheat (TRZAS), and the phytotoxicity of the herbicidal compositions was measured. In addition, the efficacy of the herbicidal composition on Canadian thistle ([…], Cirsium arvense), kochia (KCHSC, Kochia scoparia), mallow (MALPU, Marva pusilla), wild buckwheat (POLCO, Polygonum convolvulus), and lady's thumb (POLPE, Polygonum persicaria) was evaluated.
# [7] = system: rutabaga (Brassica napus var. napobrassica, BRSNA); test: Greenhouse postemergence trial, % visual injury; assay type: in vivo
# [8] = system: Indian hedge mustard (Sisymbrium orientale, SSYOR); test: Greenhouse postemergence trial, % visual injury; assay type: in vivo
# [9] = system: brown mustard (Brassica juncea, BRSJU); test: Greenhouse postemergence trial, % visual injury; assay type: in vivo
# [10] = system: Chinese kale (Brassica alboglabra, BRSAG); test: Greenhouse postemergence trial, % visual injury; assay type: in vivo; details: for % visual injury, Obs: BRSAG, compound 1 (EC) 5 g ae/ha
# [11] = system: wild radish (Raphanus raphanistrum, RAPRA); test: Greenhouse postemergence trial, % visual injury; assay type: in vivo
# [12] = system: large crabgrass (Digitaria sanguinalis, DIGSA); test: Greenhouse postemergence trial, % visual injury; assay type: in vivo; details: Digitaria sanguinalis, post-emergence; DIGSA, 5 g ae/ha; read-out: % visual injury, Obs
# [13] = system: turnip (Brassica rapa, BRSRR); test: Greenhouse postemergence trial, % visual injury; assay type: in vivo; details: for % visual injury, Obs: BRSRR, compound 1 (EC) 5 g ae/ha
# [14] = system: ivyleaved speedwell (Veronica hederifolia, VERHE); test: Greenhouse postemergence trial, % visual injury; assay type: in vivo; details: compound 1 (EC) 5 g ae/ha
# [15] = system: soybean (Glycine max, GIAMA); test: Greenhouse postemergence trial, % visual injury; assay type: in vivo; details: GLXMA
# [16] = 5 g ae/ha alone (compound 1 as EC), 20-22 d
compound,measurement,setting,value
"CCCCC(CC)COC(=O)COc1ccc(Cl)cc1Cl (stereo not shown) [2,4-D EHE, 2-ethylhexyl (2,4-dichlorophenoxy)acetate, reference compound]","% visual injury, Obs",winter wheat (TRZAW),0%
same,% visual injury Obs,[1],55%
same,% visual injury Obs,[2],74%
same,% visual injury Obs,[3],51%
same,% visual injury Obs,[4],25%
same,% visual injury Obs,[5],65%
same,"% visual injury, Obs",[6],0%
same,% visual injury Obs,spring wheat (TRZAS); 6-8 DAA,3%
same,% visual injury Obs,spring wheat (TRZAS); 14-16 DAA,0%
Nc1c(F)c(-c2ccc3cc[nH]c3c2F)nc(C(=O)O)c1Cl [compound 1],% visual injury Obs,[7]; [16],65%
same,"% visual injury, Obs","[7]; BRSNA, compound 1 (EC) 5 g ae/ha, Table 63",65%
same,% visual injury (Obs),[8]; compound 1 SC 2.5 g ae/ha,13%
same,% visual injury (Obs),[8]; compound 1 SC 5 g ae/ha,20%
same,% visual injury Obs,[9]; [16],60%
same,"% visual injury, Obs","[9]; BRSJU, compound 1 (EC) 5 g ae/ha, Table 62",60%
same,% visual injury Obs,[10]; [16],15%
same,"% visual injury, Obs",[10]; Table 62,15%
same,"% visual injury, Obs",[10]; Table 63,15%
same,% visual injury (Obs),[11]; compound 1 SC 2.5 g ae/ha,13%
same,% visual injury (Obs),[11]; compound 1 SC 5 g ae/ha,13%
same,pest or weed control at 5 g/ha,[12],0%
same,"% visual injury, Obs",[13]; Table 62,50%
same,"% visual injury, Obs",[13]; Table 63,50%
same,% visual injury (Obs),[13]; compound 1 SC 2.5 g ae/ha,45%
same,% visual injury (Obs),[13]; compound 1 SC 5 g ae/ha,62%
same,% visual injury (Obs),[14],40%
same,"% visual injury, Obs",[15]; 5 g ae/ha,95%
same,"% visual injury, Obs",[15]; 10 g ae/ha,100%
